Columns and labels:
[1] = target: T1, 5-hydroxytryptamine receptor 3B (Mus musculus, UniProt Q9JHJ5); assay: In vitro binding affinity for the 5-hydroxytryptamine 3 receptor was determined with NG-108-15 mouse neuroblastoma-glioma cells
T1 sequence (Q9JHJ5 whole entry): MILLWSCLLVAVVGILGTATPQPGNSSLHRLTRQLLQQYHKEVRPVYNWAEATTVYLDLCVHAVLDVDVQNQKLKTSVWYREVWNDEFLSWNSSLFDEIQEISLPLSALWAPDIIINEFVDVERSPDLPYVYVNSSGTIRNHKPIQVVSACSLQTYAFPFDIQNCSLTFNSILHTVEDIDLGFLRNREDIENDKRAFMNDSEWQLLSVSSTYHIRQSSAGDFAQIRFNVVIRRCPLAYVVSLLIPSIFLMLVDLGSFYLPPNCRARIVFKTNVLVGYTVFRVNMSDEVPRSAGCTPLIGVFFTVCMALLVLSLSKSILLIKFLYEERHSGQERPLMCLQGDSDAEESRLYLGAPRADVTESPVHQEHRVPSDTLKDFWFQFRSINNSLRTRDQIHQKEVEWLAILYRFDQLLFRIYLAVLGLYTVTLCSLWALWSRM

[2] = target: Serotonin 3 (5-HT3) receptor (Rattus norvegicus) (UniProt P35563+Q9JJ16); assay: Tested for inhibition of Bezold-Jarisch (B-J) reflex mediated by 5-hydroxytryptamine 3 receptor in rats after intravenous administration (2.0 ug/kg); assay type: functional, organism-based
[3] = target: 5-hydroxytryptamine receptor 3A (Mus musculus) (UniProt P23979); assay: In vitro binding affinity for the 5-hydroxytryptamine 3 receptor was determined with NG-108-15 mouse neuroblastoma-glioma cells
Chain of 5-hydroxytryptamine receptor 3A (Mus musculus) (P23979 whole entry, looked up): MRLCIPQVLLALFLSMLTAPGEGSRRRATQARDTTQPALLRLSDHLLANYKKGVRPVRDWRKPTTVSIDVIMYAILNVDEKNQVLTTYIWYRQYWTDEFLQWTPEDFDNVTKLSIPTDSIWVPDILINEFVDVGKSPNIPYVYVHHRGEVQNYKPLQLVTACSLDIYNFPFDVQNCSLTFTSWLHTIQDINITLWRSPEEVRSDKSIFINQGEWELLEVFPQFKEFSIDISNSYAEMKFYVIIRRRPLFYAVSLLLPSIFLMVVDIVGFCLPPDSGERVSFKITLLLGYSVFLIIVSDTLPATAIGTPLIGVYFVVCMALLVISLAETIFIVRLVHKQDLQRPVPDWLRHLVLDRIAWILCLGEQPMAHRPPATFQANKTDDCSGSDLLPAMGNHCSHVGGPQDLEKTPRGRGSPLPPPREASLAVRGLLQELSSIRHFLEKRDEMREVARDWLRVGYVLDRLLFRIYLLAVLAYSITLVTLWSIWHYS

inhibition [2] | Ki [3] | Compound | Ki [1]
 |  | CN(Cc1nc(-c2c[nH]c3ccccc23)cs1)C(=N)N | > 1 nM
 |  | Cc1nc[nH]c1Cc1nc(-c2c[nH]c3ccccc23)cs1 | 10 nM
43% |  | Cc1nccn1CC1CCc2c(c3ccccc3n2C)C1=O (stereo not drawn) | 
 |  | N=C(N)NCc1ccccn1 | 82 nM
51% | 3.3 nM | N=C(N)NCc1nc(-c2c[nH]c3ccccc23)cs1 | 
 |  | Cc1csc(CNC(=N)N)n1 | 116 nM

Compound | inhibition [2] | Ki [3] | Ki [1]
COc1cc(N)c(Cl)cc1C(=O)NC1CN2CCC1CC2 (stereo not drawn) | 84% |  | 

— ChEMBL document CHEMBL1124976, “An initial three-component pharmacophore for specific serotonin-3 receptor ligands” (J Med Chem, 1990)
